From patent US11111247B2, “Pyrazolopyrimidine compounds and uses thereof” (Incyte Corporation, priority 2018, dated 2021)
Like-named read-outs stand apart in the source and are kept apart here.

Key:
ALK2 (aa 147-end) = ALK2 (aa 147-end) (Homo sapiens (Human), UniProt Q04771); assay: ALK2 HTRF Assay; type: biochemical
FGFR2 = FGFR2 (Homo sapiens, UniProt P21802); assay: pFGFR2 Functional Cell HTRF Assay (KATOIII cells); type: cell-based
Experimental: To measure phosphorylated Fibroblast Growth Factor Receptor 2 (FGFR2), KATOIII cells (Human Gastric Carcinoma) were purchased from ATCC and maintained in Iscove's with 20% FBS (Gibco/Life Technologies). For the pFGFR2 assay, KATOIII cells were plated overnight in 5% FBS and Iscove's medium at 5×10^4 cells/well into Corning 96-well flat-bottom tissue culture treated plates. The next morning, 50 μl of fresh media with 0.5% FBS was incubated in the presence or absence of a concentration range of test compounds also at 50 μl, for 1 hour at 37° C., 5% CO2. Cell were washed with PBS, and lysed with Cell Signaling Lysis Buffer with standard Protease inhibitors for 45 min at room temperature. 4 μl total of Cis Bio Anti […] together were added to the lysate and mixed well (following directions of the kit). 16 μl was then transferred to 384 well Greiner white plates and stored at 4° C. overnight in the dark. Plates were read on the Pherastar plate reader at 665 nm and 620 nm wavelengths. IC50 determination was performed by fitting the curve of inhibitor percent inhibition versus the log of the inhibitor concentration using the GraphPad Prism 5.0 software. […] NT=Not tested.

FGFR2 (P) = FGFR2 (P) (Homo sapiens (Human), UniProt P21802); assay: FGFR Enzymatic Assay, FGFR2 phosphorylated; settings: phosphorylated enzyme, ATP near or below Km
FGFR2 (UP) = FGFR2 (UP) (Homo sapiens (Human), UniProt P21802); assay: FGFR Enzymatic Assay, FGFR2 un-phosphorylated
Experimental: (§1) The inhibitor potency of the exemplified compounds was determined in an enzyme discontinuous assay that measures peptide phosphorylation using FRET measurements to detect product formation. Inhibitors were serially diluted in DMSO and a volume of 0.2 μL was transferred to the wells of a 384-well plate. For the isoforms of FGFR (−1, −2, −3 wild-type and mutant isoforms, −4) including phosphorylated (P) and un-phosphorylated (UP) proteins, a 5 μL/well volume of enzyme diluted in assay buffer (50 mM HEPES, 10 mM MgCl2, 1 mM EGTA, 0.01% Tween-20, 5 mM DTT, pH 7.5) was added to the plate and pre-incubated with inhibitor for 5 to 15 minutes at ambient temperature. Appropriate controls (enzyme blank and enzyme with no inhibitor) were included on the plate. The reaction was initiated by the addition of a 5 μL/well volume containing both biotinylated [sequence] […] The plate was allowed to equilibrate for −10 minutes at ambient temperature before scanning on a PheraStar plate reader (BMG Labtech) instrument.
(§2) Either GraphPad prism or XLfit was used to analyze the data. The IC50 values were derived by fitting the data to a four parameter logistic equation producing a sigmoidal dose-response curve with a variable Hill coefficient. Prism equation: Y=Bottom+(Top−Bottom)/(1+10^((LogIC50−X)*Hill slope)); XLfit equation: Y=(A+((B−A)/(1+((X/C)^D)))) where X is the logarithm of inhibitor concentration and Y is the response.

ALK2 = ALK2 (Homo sapiens (Human), UniProt Q04771); assay: ALK2 Cellular Assay (phospho SMAD1 HTRF, BMP-7 stimulated HeLa cells); type: cell-based; settings: HeLa cells, 200 ng/ml BMP-7, Phospho SMAD1 (S463/S465) HTRF; read-out: ALK2 Cellular Assay PSMAD
In short: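 HeLa cells pre-treated with compound (highest final 3 μM) for 60 min at 37° C, then stimulated with 200 ng/ml BMP-7 for 30 min. Phospho-SMAD1 (S463/S465) quantified by HTRF after overnight room-temperature incubation.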

FGFR3 (UP) = FGFR3 (UP) (Homo sapiens (Human), UniProt P22607); assay: FGFR Enzymatic Assay, FGFR3 un-phosphorylated; settings: read-out: FGFR3 (UP) IC50; un-phosphorylated enzyme, ATP near or below Km
FGFR1 (UP) = FGFR1 (UP) (Homo sapiens (Human), UniProt P11362); assay: FGFR Enzymatic Assay, FGFR1 un-phosphorylated
Experimental: as §1, §2

FGFR3 = FGFR3 (Homo sapiens, UniProt P22607); assay: pFGFR3 Functional Cell HTRF Assay (BAF3-TEL-FGFR3 cells); type: cell-based; settings: 2 hours
Experimental: To measure phosphorylated Fibroblast Growth Factor Receptor 1 and 3 (FGF1 and FGFR3), in house stable cell lines BAF3-TEL-FGFR1 or BAF3-TEL-FGFR3 were maintained in RPMI with 10% FBS and 1 μg/ml puromycin (Gibco/Life Technologies). […] The plates were gently shaken (100 rpm) for 2 minutes at room temperature to mix well and incubated for 2 hours in a single layer at 37° C., 5% CO2. 4 μl/well of 1/25 dilution of lysis buffer #3 (Cis Bio) was added with standard Protease inhibitors and shaken at 200 rpm at room temperature for 20 minutes. 4 μl total of the Cis Bio Tb-pFGFR Ab (10 ng) and d2-FGFR3 (1 ng) together were added to the lysate and mixed well. Plates were sealed and incubated at room temperature overnight in the dark. […] IC50 determination was performed by fitting the curve of inhibitor percent inhibition versus the log of the inhibitor concentration using the GraphPad Prism 5.0 software.

RT112 cells = assay: Luminescent Viability Assay (LVA, FGFR3); type: cell-based; settings: Homo sapiens, RT-112, 72 h, 3 days, CellTiter-Glo
Experimental: RT112 cells were purchased from ATCC (Manassas, Va.) and maintained in RPMI, 10% FBS (Gibco/Life Technologies). To measure the effect of test compounds on the viability of cells, the cells were plated with RPMI 10% FBS (5×10^3 cells/well/in 50 μL) into black 96-well Greiner polystyrene in the presence or absence of 50 μl of a concentration range of test compounds. After 3 days, 100 μl of CellTiter-Glo Reagent (Promega) was added. Luminescence was read with a TopCount (PerkinElmer). IC50 determination was performed by fitting the curve of percent inhibition versus the log of the inhibitor concentration using the GraphPad Prism 5.0 software.

[1] = 1 hour, read-out: FGFR2 HTRF IC50
[2] = read-out: FGFR2 (UP) IC50, un-phosphorylated enzyme, ATP near or below Km
[3] = read-out: ALK2 100 μM IC50, 100 uM ATP
[4] = read-out: FGFR1 (UP) IC50, un-phosphorylated enzyme, ATP near or below Km

FGFR3 (UP), sequence (P22607 23-806): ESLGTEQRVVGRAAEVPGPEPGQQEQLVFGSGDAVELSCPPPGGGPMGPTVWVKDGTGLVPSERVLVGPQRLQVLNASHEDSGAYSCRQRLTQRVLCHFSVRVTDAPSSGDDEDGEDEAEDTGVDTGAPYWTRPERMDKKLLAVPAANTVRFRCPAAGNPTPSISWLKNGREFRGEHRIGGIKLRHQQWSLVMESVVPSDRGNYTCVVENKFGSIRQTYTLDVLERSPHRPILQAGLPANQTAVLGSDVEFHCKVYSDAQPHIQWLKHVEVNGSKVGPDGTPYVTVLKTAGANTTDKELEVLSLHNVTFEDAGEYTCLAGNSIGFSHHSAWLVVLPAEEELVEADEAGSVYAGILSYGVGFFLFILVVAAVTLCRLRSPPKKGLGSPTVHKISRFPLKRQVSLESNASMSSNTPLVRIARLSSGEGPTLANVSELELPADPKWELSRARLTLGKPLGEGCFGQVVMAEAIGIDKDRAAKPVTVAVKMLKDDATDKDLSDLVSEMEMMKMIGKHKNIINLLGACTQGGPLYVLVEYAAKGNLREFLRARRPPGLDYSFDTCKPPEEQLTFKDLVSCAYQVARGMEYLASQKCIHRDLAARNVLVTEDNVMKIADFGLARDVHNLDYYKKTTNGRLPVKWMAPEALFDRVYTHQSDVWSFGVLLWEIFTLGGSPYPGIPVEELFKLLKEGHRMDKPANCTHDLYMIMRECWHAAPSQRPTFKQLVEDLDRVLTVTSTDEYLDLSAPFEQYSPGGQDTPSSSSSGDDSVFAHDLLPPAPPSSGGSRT
FGFR3, sequence (P22607 23-806 limits assumed): as the sequence (P22607 23-806) above
FGFR1 (UP), sequence (P11362 22-822): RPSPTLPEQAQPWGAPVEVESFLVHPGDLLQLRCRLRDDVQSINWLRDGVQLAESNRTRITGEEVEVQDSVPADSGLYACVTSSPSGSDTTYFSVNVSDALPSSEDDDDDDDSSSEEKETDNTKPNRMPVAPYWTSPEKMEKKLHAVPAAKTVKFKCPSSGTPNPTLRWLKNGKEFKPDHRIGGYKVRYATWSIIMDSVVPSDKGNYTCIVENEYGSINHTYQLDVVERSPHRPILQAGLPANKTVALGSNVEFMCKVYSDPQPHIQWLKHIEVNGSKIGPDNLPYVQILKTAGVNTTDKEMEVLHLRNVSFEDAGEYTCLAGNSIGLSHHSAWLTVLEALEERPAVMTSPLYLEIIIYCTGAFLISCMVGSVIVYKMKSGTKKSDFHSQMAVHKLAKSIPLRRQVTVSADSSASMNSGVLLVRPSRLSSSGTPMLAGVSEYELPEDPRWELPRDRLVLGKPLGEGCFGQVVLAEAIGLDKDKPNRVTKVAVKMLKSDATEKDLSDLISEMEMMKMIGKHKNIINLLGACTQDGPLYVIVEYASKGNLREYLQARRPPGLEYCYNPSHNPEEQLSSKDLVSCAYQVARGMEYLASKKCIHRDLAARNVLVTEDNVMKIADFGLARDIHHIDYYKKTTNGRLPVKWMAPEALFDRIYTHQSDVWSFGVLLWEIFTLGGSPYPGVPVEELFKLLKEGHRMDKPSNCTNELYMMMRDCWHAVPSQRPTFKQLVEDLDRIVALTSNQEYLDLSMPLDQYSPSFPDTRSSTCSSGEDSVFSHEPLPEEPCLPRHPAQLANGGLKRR
FGFR2, sequence (P21802 22-821 limits assumed): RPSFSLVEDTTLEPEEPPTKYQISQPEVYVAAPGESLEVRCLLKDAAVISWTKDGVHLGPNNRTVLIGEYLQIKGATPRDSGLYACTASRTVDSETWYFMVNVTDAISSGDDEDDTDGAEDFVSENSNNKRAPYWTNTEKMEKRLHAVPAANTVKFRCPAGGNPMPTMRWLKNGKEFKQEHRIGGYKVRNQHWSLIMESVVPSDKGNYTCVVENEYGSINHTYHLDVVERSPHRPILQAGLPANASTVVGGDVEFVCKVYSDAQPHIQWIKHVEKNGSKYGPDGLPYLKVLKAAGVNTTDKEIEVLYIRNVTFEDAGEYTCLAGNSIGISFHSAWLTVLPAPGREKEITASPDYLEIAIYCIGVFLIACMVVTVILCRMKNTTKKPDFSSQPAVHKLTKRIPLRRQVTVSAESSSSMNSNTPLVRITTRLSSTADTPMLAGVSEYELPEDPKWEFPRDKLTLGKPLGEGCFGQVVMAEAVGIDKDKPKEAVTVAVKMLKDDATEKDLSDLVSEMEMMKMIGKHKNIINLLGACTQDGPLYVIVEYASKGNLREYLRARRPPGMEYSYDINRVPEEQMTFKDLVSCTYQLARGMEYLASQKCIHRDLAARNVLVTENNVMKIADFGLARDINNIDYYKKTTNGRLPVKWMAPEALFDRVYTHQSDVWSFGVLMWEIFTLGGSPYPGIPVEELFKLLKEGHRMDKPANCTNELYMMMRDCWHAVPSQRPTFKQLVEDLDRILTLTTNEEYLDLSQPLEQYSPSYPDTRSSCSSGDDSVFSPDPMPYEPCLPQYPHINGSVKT
FGFR2 (UP), sequence (P21802 22-821): as the sequence (P21802 22-821 limits assumed) above
FGFR2 (P), sequence (P21802 22-821): as the sequence (P21802 22-821 limits assumed) above
ALK2 (aa 147-end), sequence (Q04771 147-509): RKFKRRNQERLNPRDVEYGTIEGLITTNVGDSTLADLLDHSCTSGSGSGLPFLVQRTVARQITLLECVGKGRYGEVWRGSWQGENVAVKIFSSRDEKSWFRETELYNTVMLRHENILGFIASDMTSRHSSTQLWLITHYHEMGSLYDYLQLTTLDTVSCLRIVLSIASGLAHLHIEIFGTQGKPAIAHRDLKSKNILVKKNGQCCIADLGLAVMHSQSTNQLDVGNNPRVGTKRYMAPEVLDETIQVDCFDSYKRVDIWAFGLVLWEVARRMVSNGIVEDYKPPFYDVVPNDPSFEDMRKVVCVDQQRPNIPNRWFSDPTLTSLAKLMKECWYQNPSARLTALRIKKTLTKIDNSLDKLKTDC
ALK2, sequence (Q04771 21-509): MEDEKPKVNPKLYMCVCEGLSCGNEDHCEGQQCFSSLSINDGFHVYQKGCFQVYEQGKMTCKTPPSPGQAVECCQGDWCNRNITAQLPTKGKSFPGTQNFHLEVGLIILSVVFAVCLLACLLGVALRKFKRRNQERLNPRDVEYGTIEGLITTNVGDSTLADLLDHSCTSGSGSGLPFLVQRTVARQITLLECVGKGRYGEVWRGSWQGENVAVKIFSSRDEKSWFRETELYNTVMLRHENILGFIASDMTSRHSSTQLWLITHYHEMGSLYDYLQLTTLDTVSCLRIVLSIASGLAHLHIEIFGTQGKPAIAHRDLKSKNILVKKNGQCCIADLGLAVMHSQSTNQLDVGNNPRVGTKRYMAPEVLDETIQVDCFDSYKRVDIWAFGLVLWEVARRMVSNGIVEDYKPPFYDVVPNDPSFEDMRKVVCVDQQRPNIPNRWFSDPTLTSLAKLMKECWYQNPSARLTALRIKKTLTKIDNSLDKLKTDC

| IC50 (ALK2 (aa 147-end); read-out: ALK2 3 μM IC50, 3 uM ATP) [nM] | IC50 (ALK2 (aa 147-end); read-out: ALK2 1 mM IC50, 1 mM ATP) [nM] | IC50 (ALK2) [nM] | IC50 (FGFR2 (UP)) [nM] | SMILES | IC50 (ALK2 (aa 147-end); ALK2 3 μM IC50, 3 uM ATP) [nM] | IC50 (ALK2 (aa 147-end); ALK2 100 μM IC50, 100 uM ATP) [nM] | IC50 (FGFR2; [1]) [nM] | IC50 (FGFR2 (P); read-out: FGFR2 (P) IC50) [nM] | IC50 (FGFR2 (UP); [2]) [nM] | IC50 (FGFR2; read-out: FGFR2 HTRF IC50, 1 hour) [nM] | IC50 (ALK2 (aa 147-end); [3]) [nM] | IC50 (FGFR3 (UP)) [nM] | IC50 (FGFR1 (UP)) [nM] | IC50 (FGFR3) [nM] | IC50 (RT112 cells) [nM] | IC50 (FGFR2 (P); FGFR2 (P) IC50 (nM)) [nM] | IC50 (FGFR1 (UP); [4]) [nM] |
| --- | --- | --- | --- | --- | --- | --- | --- | --- | --- | --- | --- | --- | --- | --- | --- | --- | --- |
| – | – | – | – | CN1CC2CCC(C1=O)N2c1ncc2[nH]nc(-c3cnn(C4CCC4)c3)c2n1 (single isomer, unassigned) [Example 64, 8-(3-(1-Cyclobutyl-1H-pyrazol-4-yl)-1H-pyrazolo[4,3-d]pyrimidin-5-yl)-3-methyl-3,8-diazabicyclo[3.2.1]octan-2-one] | 100 to 500 | 500 to 2000 | < 100 | < 100 | < 100 | – | – | – | – | – | – | – | – |
| – | – | – | – | CN1CC2CCC(C1=O)N2c1ncc2[nH]nc(-c3cnn(C4CC4)c3)c2n1 (single isomer, unassigned) [Example 66, 8-(3-(1-Cyclopropyl-1H-pyrazol-4-yl)-1H-pyrazolo[4,3-d]pyrimidin-5-yl)-3-methyl-3,8-diazabicyclo[3.2.1]octan-2-one] | – | – | – | – | – | < 100 | – | – | – | – | – | – | – |
| < 100 | < 100 | < 100 | 100 to 500 | COC(=O)N1C[C@@H](C)N(c2ncc3[nH]nc(-c4ccc(N5CCN(C)[C@H](C)C5)nc4)c3n2)[C@@H](C)C1 [Example 33, Methyl (3R,5S)-4-(3-(6-((R)-3,4-dimethylpiperazin-1-yl)pyridin-3-yl)-1H-pyrazolo[4,3-d]pyrimidin-5-yl)-3,5-dimethylpiperazine-1-carboxylate] | – | – | – | – | – | – | < 100 | < 100 | 100 to 500 | – | – | – | – |
| – | – | – | – | CCn1cc(-c2n[nH]c3cnc(N4C5CCC4C(=O)N(C)C5)nc23)cn1 (stereo not drawn) [Example 61, 8-(3-(1-Ethyl-1H-pyrazol-4-yl)-1H-pyrazolo[4,3-d]pyrimidin-5-yl)-3-methyl-3,8-diazabicyclo[3.2.1]octan-2-one] | 500 to 2000 | 500 to 2000 | – | < 100 | – | – | – | < 100 | 100 to 500 | < 100 | 100 to 500 | – | – |
| – | – | – | – | CC(C)n1cc(-c2n[nH]c3cnc(N4C5CCC4C(=O)N(C)C5)nc23)cn1 (stereo not drawn) [Example 62, 8-(3-(1-Isopropyl-1H-pyrazol-4-yl)-1H-pyrazolo[4,3-d]pyrimidin-5-yl)-3-methyl-3,8-diazabicyclo[3.2.1]octan-2-one] | – | – | – | < 100 | – | – | – | < 100 | 100 to 500 | 100 to 500 | 100 to 500 | – | – |
| – | – | – | – | CN1CC2CCC(C1=O)N2c1ncc2[nH]nc(-c3cnn(CC(F)(F)F)c3)c2n1 (stereo not drawn) [Example 67, 3-Methyl-8-(3-(1-(2,2,2-trifluoroethyl)-1H-pyrazol-4-yl)-1H-pyrazolo[4,3-d]pyrimidin-5-yl)-3,8-diazabicyclo[3.2.1]octan-2-one] | – | – | – | – | – | – | – | < 100 | 100 to 500 | 100 to 500 | – | 100 to 500 | – |
| – | – | – | – | CN1CC2CCC(C1=O)N2c1ncc2[nH]nc(-c3cnn(-c4ccncc4)c3)c2n1 (stereo not drawn) [Example 68, 3-Methyl-8-(3-(1-(pyridin-4-yl)-1H-pyrazol-4-yl)-1H-pyrazolo[4,3-d]pyrimidin-5-yl)-3,8-diazabicyclo[3.2.1]octan-2-one] | 500 to 2000 | – | < 100 | < 100 | < 100 | – | > 2000 | < 100 | – | < 100 | 100 to 500 | – | < 100 |
| – | – | – | – | CN1CC2CCC(C1=O)N2c1ncc2[nH]nc(-c3cnn(-c4ccc(C#N)cc4)c3)c2n1 (stereo not drawn) [Example 70, 4-(4-(5-(3-Methyl-2-oxo-3,8-diazabicyclo[3.2.1]octan-8-yl)-1H-pyrazolo[4,3-d]pyrimidin-3-yl)-1H-pyrazol-1-yl)benzonitrile] | 500 to 2000 | – | < 100 | < 100 | < 100 | – | > 2000 | < 100 | – | < 100 | < 100 | – | < 100 |
| – | – | – | – | Cc1cc(-n2cc(-c3n[nH]c4cnc(N5C6CCC5C(=O)N(C)C6)nc34)cn2)ccn1 (stereo not drawn) [Example 71, 3-Methyl-8-(3-(1-(2-methylpyridin-4-yl)-1H-pyrazol-4-yl)-1H-pyrazolo[4,3-d]pyrimidin-5-yl)-3,8-diazabicyclo[3.2.1]octan-2-one] | 500 to 2000 | 500 to 2000 | < 100 | < 100 | – | – | – | < 100 | – | < 100 | < 100 | – | < 100 |
| – | – | – | – | CN1CC2CCC(C1=O)N2c1ncc2[nH]nc(-c3cnn(-c4ccc(N(C)C)nc4)c3)c2n1 (stereo not drawn) [Example 72, 8-(3-(1-(6-(Dimethylamino)pyridin-3-yl)-1H-pyrazol-4-yl)-1H-pyrazolo[4,3-d]pyrimidin-5-yl)-3-methyl-3,8-diazabicyclo[3.2.1]octan-2-one] | 500 to 2000 | 500 to 2000 | < 100 | < 100 | < 100 | – | – | < 100 | – | < 100 | 100 to 500 | – | < 100 |
| – | – | – | – | CN(C)C(=O)c1ccc(-n2cc(-c3n[nH]c4cnc(N5C6CCC5C(=O)N(C)C6)nc34)cn2)cc1 (stereo not drawn) [Example 79, N,N-Dimethyl-4-(4-(5-(3-methyl-2-oxo-3,8-diazabicyclo[3.2.1]octan-8-yl)-1H-pyrazolo[4,3-d]pyrimidin-3-yl)-1H-pyrazol-1-yl)benzamide] | 100 to 500 | 500 to 2000 | – | < 100 | < 100 | – | – | < 100 | – | < 100 | – | – | < 100 |
| – | – | – | – | CNC(=O)c1ccc(-n2cc(-c3n[nH]c4cnc(N5C6CCC5C(=O)N(C)C6)nc34)cn2)cc1 (stereo not drawn) [Example 80, N-Methyl-4-(4-(5-(3-methyl-2-oxo-3,8-diazabicyclo[3.2.1]octan-8-yl)-1H-pyrazolo[4,3-d]pyrimidin-3-yl)-1H-pyrazol-1-yl)benzamide] | – | – | – | < 100 | < 100 | – | – | < 100 | – | – | 500 to 2000 | – | < 100 |
| – | – | – | – | CNC(=O)c1ccc(-n2cc(-c3n[nH]c4cnc(N5C6CCC5C(=O)N(C)C6)nc34)cn2)cc1F (stereo not drawn) [Example 81, 2-Fluoro-N-methyl-4-(4-(5-(3-methyl-2-oxo-3,8-diazabicyclo[3.2.1]octan-8-yl)-1H-pyrazolo[4,3-d]pyrimidin-3-yl)-1H-pyrazol-1-yl)benzamide] | 500 to 2000 | 500 to 2000 | < 100 | < 100 | – | – | – | < 100 | – | < 100 | < 100 | – | < 100 |
| – | – | – | – | CNC(=O)c1ccc(-n2cc(-c3n[nH]c4cnc(N5C6CCC5C(=O)N(C)C6)nc34)cn2)cn1 (stereo not drawn) [Example 82, N-Methyl-5-(4-(5-(3-methyl-2-oxo-3,8-diazabicyclo[3.2.1]octan-8-yl)-1H-pyrazolo[4,3-d]pyrimidin-3-yl)-1H-pyrazol-1-yl)picolinamide] | 500 to 2000 | 500 to 2000 | – | < 100 | – | – | – | < 100 | – | 100 to 500 | – | – | < 100 |
